Results published in patent US20040116346A1, “Affinity small molecules for the EPO receptor” (priority 2002, published 2004).

Experiments:
[1] = test system: Mouse or human bone marrow cells; experiment: Formation of erythroid colonies (CFU-e, BFU-e) from bone marrow in methylcellulose; assay type: cell-based; details: mouse and human bone marrow
Procedure: Mouse or human bone marrow cells were stimulated in methylcellulose for 7 days (mouse) or 14 days (human) with non-peptide EPO-R modulators. Formation of erythroid colonies was observed. (See FIGS. 6 to 8)
(1) Dilute human bone marrow 1:1 with sterile PBS. (2) Slowly layer bone marrow into 50 ml tubes containing 20 ml of LSM Lymphocyte separation medium (ICN/Cappel—cat #50494). 50 ml bone marrow will yield 2 tubes. (3) Spin tubes at 2000 rpm for 30 minutes with brake off. (4) Slowly take out the middle layer using a 10 ml pipette and transfer into a new 50 ml tube. (5) Add PBS +0.5% BSA +5 mM EDTA to tube for washing. (6) Spin tube for 5 minutes at speed 4 with brake on. (7) Repeat wash step 2 more times. (8) After 3rd wash, resuspend pellet in SF Iscoves' MDM medium. (9) Count by diluting cells in 3% acetic acid. (10) Dilute cells to desired concentration (5×10^5 cells/ml) and seed onto methylcellulose.
(1) Tubes containing 3.0 ml of methylcellulose medium (Stemcell Technology, cat #H4230) supplemented with 50 ng/ml hSCF are prepared. (Alternatively the methylcellulose could be supplemented with 50 ng/ml hSCF, 20 ng/ml of hIL-3 and hIL-6). (2) Compounds or EPO of desired concentrations are added to the tubes. […] Colonies are scored on day twelve.
Bone marrow cells were isolated from mouse femurs. […] The colonies were scored on day seven. […]

CD34+cells = experiment: erythroid colony formation in methylcellulose, CD34+ cells; assay type: cell-based; details: colonies counted on day 14
Source text: CD34+cells were isolated and seeded in the presence of compound. The colonies were counted on day 14.

Cc1ccc(Cl)cc1Nc1nc2nc(C)c(NCC3CC3)cn2n1 [Compound E5]
CFU-e formation compared with EPO [1]: stimulate CFU-e formation to the same extent as EPO | cooperation with EPO on erythroid colony formation (CD34+cells): cooperation
